Test results as given in US20040023884A1, “Biologically active peptides from functional domains of bactericidal/permeability-increasing protein and uses thereof” (priority 1993, published 2004).
Converted amounts (≈) assume the structure as drawn. Bridge positions count the residues as written; N and C are the ends. Square brackets hold non-standard residues; d marks the D form. Ends that are not written are not given here. Peptide text beside a SMILES is read from it. 1Nal = N[C@@H](Cc1cccc2ccccc12)C(=O)O

How the values were obtained:
Type in all cases: cell-based
[1] = system: rough mutant E. coli J5 bacteria; assay: Radial diffusion bactericidal assay, E. coli J5; conditions: radial diffusion; PROBIT analysis; E. coli J5 (rough)
Outline: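 Wells received 5 or 10 μL of BPI fragment, pre-incubated 3 h at 37 °C. The underlayer agarose carried washed log-phase organisms at 4×10^6 CFU/mL.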

[2] = system: E. coli 0111:B4 (smooth) bacteria; assay: Radial diffusion bactericidal assay, E. coli 0111:B4; conditions: radial diffusion; PROBIT analysis; E. coli O111:B4 (smooth)
[3] = system: Staphylococcus aureus; assay: Radial diffusion bactericidal assay, Staphylococcus aureus; conditions: radial diffusion; PROBIT analysis; S. aureus
[4] = system: Candida albicans

Compound | pmol added to well to achieve a 30 mm^2 bactericidal zone, E. coli J5 [1] | pmol added to well to achieve a 30 mm^2 bactericidal zone, E. coli O111:B4 [2] | pmol added to well to achieve a 30 mm^2 bactericidal zone, S. aureus [3] | MIC C. alb [4]
CC(C)C[C@H](NC(=O)[C@H](Cc1ccccc1)NC(=O)[C@H](CCCNC(=N)N)NC(=O)[C@H](Cc1cccc2ccccc12)NC(=O)[C@H](CCC(N)=O)NC(=O)[C@H](C)NC(=O)[C@H](CCCCN)NC(=O)[C@H](Cc1cccc2ccccc12)NC(=O)[C@H](CCCCN)NC(=O)[C@H](CCCCN)NC(=O)[C@H](CC(C)C)NC(=O)[C@H](Cc1ccccc1)NC(=O)[C@H](CCCNC(=N)N)NC(=O)[C@H](Cc1cccc2ccccc12)NC(=O)[C@H](CCC(N)=O)NC(=O)[C@H](C)NC(=O)[C@H](CCCCN)NC(=O)[C@H](Cc1cccc2ccccc12)NC(=O)[C@@H](N)CCCCN)C(=O)N[C@@H](CCCCN)C(N)=O [BPI.160] (H-K[1Nal]KAQ[1Nal]RFLKK[1Nal]KAQ[1Nal]RFLK-NH2; N-terminus and C-terminus assumed) | 288.78 pmol | 2,967.57 pmol | 352,608.37 pmol | >100.00 µg/mL
KSKVKALIQLFHKK [BPI.161] | 1,201.79 pmol | b (no detectable activity up to 5 μg/well) | 100,476.32 pmol | 3.13 µg/mL
CC[C@H](C)[C@H](NC(=O)[C@H](CC(C)C)NC(=O)[C@H](Cc1c[nH]c2ccccc12)NC(=O)CNC(=O)[C@@H](NC(=O)[C@H](CCCCN)NC(=O)[C@H](CO)NC(=O)[C@@H](N)CCCCN)C(C)C)C(=O)N[C@@H](CCC(N)=O)C(=O)N[C@@H](CC(C)C)C(=O)N[C@@H](Cc1ccccc1)C(=O)N[C@@H](Cc1cccc2ccccc12)C(=O)N[C@@H](CCCCN)C(=O)N[C@@H](Cc1cccc2ccccc12)C(=O)O [BPI.146] (H-KSKVGWLIQLF[1Nal]K[1Nal]-OH; N-terminus and C-terminus assumed) | b (no detectable activity up to 5 μg/well) | b (no detectable activity up to 5 μg/well) | b (no detectable activity up to 5 μg/well) | >50.00 µg/mL
CC(C)C[C@H](NC(=O)[C@H](Cc1ccccc1)NC(=O)[C@H](CCCNC(=N)N)NC(=O)[C@H](Cc1cccc2ccccc12)NC(=O)[C@H](Cc1cccc2ccccc12)NC(=O)[C@H](C)NC(=O)[C@H](CCCCN)NC(=O)[C@H](Cc1c[nH]c2ccccc12)NC(=O)[C@H](CCCCN)NC(=O)[C@H](CCCCN)NC(=O)[C@H](CC(C)C)NC(=O)[C@H](Cc1ccccc1)NC(=O)[C@H](CCCNC(=N)N)NC(=O)[C@H](CCCCN)NC(=O)[C@H](CCC(N)=O)NC(=O)[C@H](C)NC(=O)[C@H](CCCCN)NC(=O)[C@H](Cc1c[nH]c2ccccc12)NC(=O)[C@@H](N)CCCCN)C(=O)N[C@@H](CCCCN)C(=O)O [BPI.155] (H-KWKAQKRFLKKWKA[1Nal][1Nal]RFLK-OH; N-terminus and C-terminus assumed) | 5,912.26 pmol | 53,027,986.44 pmol | 5,530,185,440.73 pmol | >100.00 µg/mL
KWKAQKRF [BPI.167] | 25,489.99 pmol | b (no detectable activity up to 5 μg/well) | b (no detectable activity up to 5 μg/well) | >50.00 µg/mL
C[C@@H]1NC(=O)[C@H](CCCCN)NC(=O)[C@H](Cc2c[nH]c3ccccc23)NC(=O)[C@H](CCCCN)NC(=O)[C@@H](N)CSSC[C@@H](C(N)=O)NC(=O)[C@H](Cc2ccccc2)NC(=O)[C@H](CCCNC(=N)N)NC(=O)[C@H](CCCCN)NC(=O)[C@H](CCC(N)=O)NC1=O [BPI.169] (H-CKWKAQKRFC-NH2; disulfide 1-10; N-terminus and C-terminus assumed) | 4,893.83 pmol | 36,025.95 pmol | 17,281.61 pmol | >100.00 µg/mL
CC(C)C[C@H](NC(=O)[C@H](Cc1ccccc1)NC(=O)[C@H](CCCNC(=N)N)NC(=O)[C@H](CCCCN)NC(=O)[C@H](CCC(N)=O)NC(=O)[C@H](C)NC(=O)[C@H](CCCCN)NC(=O)[C@H](Cc1c[nH]c2ccccc12)NC(=O)[C@H](CCCCN)NC(=O)[C@H](CCCCN)NC(=O)[C@H](CC(C)C)NC(=O)[C@H](Cc1ccccc1)NC(=O)[C@H](CCCNC(=N)N)NC(=O)[C@H](Cc1cccc2ccccc12)NC(=O)[C@H](Cc1cccc2ccccc12)NC(=O)[C@H](C)NC(=O)[C@H](CCCCN)NC(=O)[C@H](Cc1c[nH]c2ccccc12)NC(=O)[C@@H](N)CCCCN)C(=O)N[C@@H](CCCCN)C(=O)O [BPI.154] (H-KWKA[1Nal][1Nal]RFLKKWKAQKRFLK-OH; N-terminus and C-terminus assumed) | 197.00 pmol | 2,977.76 pmol | 30,052,224.71 pmol | >100.00 µg/mL
CC[C@H](C)[C@H](NC(=O)[C@H](CC(C)C)NC(=O)[C@H](Cc1c[nH]c2ccccc12)NC(=O)CNC(=O)[C@@H](NC(=O)[C@H](CCCCN)NC(=O)[C@H](CO)NC(=O)[C@H](CCCCN)NC(=O)[C@H](CCCCN)NC(=O)[C@H](CC(C)C)NC(=O)[C@H](Cc1ccccc1)NC(=O)[C@H](CCCNC(=N)N)NC(=O)[C@H](Cc1cccc2ccccc12)NC(=O)[C@H](CCC(N)=O)NC(=O)[C@H](C)NC(=O)[C@H](CCCCN)NC(=O)[C@H](Cc1cccc2ccccc12)NC(=O)[C@@H](N)CCCCN)C(C)C)C(=O)N[C@@H](CCC(N)=O)C(=O)N[C@@H](CC(C)C)C(=O)N[C@@H](Cc1c[nH]c2ccccc12)C(=O)N[C@@H](Cc1c[nH]cn1)C(=O)N[C@@H](CCCCN)C(=O)N[C@@H](CCCCN)C(N)=O [BPI.159] (H-K[1Nal]KAQ[1Nal]RFLKKSKVGWLIQLWHKK-NH2; N-terminus and C-terminus assumed) | 765.43 pmol | 152,678.66 pmol | 14,387.00 pmol | 50.00 µg/mL (≈ 15.9 µM)
